Test results published in ChEMBL document CHEMBL1681769, “Tetrahydroquinolin-3-yl carbamate glucocorticoid receptor agonists with reduced PEPCK activation” (Bioorg Med Chem Lett, 2011).
pEC50, pIC50, pKi: −log10 of the molar value.

What was measured:
Glucocorticoid receptor [1] = target: T1, Glucocorticoid receptor (Homo sapiens, UniProt P04150)
T1 sequence (P04150 whole entry): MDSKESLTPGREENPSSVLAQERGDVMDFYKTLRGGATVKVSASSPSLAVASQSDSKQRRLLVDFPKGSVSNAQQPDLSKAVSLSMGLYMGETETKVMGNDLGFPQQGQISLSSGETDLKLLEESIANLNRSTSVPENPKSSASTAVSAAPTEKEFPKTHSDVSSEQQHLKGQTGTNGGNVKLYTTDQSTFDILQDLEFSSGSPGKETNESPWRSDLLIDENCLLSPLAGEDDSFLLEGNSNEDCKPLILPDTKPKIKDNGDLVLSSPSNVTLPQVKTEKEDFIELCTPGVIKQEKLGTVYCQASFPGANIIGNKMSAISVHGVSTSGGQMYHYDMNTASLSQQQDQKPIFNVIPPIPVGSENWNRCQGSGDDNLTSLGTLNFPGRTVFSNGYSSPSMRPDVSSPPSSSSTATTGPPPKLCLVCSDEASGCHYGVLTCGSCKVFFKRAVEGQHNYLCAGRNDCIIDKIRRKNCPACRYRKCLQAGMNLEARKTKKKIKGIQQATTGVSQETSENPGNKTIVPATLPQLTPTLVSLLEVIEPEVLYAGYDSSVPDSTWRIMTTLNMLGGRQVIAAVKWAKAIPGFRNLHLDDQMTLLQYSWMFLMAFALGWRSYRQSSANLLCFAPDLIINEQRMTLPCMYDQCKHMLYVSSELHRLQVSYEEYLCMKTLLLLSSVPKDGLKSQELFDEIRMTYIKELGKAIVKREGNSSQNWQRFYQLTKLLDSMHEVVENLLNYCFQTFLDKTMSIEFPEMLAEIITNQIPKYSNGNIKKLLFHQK
Description: Displacement of radiolabeled Dexamethasone from GR

Glucocorticoid receptor [2] = target: T1, Glucocorticoid receptor; type: functional, cell-based, CV-1
Description: Agonist activity at GR expressed in african green monkey CV1 cells transfected with luciferase gene linked to MMTV promoter assessed as induction of luciferase transactivation activity

Glucocorticoid receptor [3] = target: T1, Glucocorticoid receptor; type: functional, cell-based, H4IIEC3
Description: Agonist activity at GR expressed in rat H4IIEC3 cells assessed as induction of PEPCK transactivation by luciferase reporter gene assay

Glucocorticoid receptor [4] = target: T1, Glucocorticoid receptor; type: cell-based, HepG2
Description: Transrepression activity at GR expressed in IL-1beta- and TNFalpha-stimulated HepG2 cells assessed as inhibition of NFKB- or AP-1 mediated E-selectin transcription by luciferase reporter gene assay

Glucocorticoid receptor [5] = target: T1, Glucocorticoid receptor; type: cell-based, NHDF
Description: Transrepression activity at GR expressed in NHDF cells assessed as IL-1beta-mediated IL-6 transcription by ELISA

Progesterone receptor = target: T2, Progesterone receptor (Homo sapiens, UniProt P06401); assay: Binding affinity to progesterone receptor
T2 sequence (P06401 whole entry): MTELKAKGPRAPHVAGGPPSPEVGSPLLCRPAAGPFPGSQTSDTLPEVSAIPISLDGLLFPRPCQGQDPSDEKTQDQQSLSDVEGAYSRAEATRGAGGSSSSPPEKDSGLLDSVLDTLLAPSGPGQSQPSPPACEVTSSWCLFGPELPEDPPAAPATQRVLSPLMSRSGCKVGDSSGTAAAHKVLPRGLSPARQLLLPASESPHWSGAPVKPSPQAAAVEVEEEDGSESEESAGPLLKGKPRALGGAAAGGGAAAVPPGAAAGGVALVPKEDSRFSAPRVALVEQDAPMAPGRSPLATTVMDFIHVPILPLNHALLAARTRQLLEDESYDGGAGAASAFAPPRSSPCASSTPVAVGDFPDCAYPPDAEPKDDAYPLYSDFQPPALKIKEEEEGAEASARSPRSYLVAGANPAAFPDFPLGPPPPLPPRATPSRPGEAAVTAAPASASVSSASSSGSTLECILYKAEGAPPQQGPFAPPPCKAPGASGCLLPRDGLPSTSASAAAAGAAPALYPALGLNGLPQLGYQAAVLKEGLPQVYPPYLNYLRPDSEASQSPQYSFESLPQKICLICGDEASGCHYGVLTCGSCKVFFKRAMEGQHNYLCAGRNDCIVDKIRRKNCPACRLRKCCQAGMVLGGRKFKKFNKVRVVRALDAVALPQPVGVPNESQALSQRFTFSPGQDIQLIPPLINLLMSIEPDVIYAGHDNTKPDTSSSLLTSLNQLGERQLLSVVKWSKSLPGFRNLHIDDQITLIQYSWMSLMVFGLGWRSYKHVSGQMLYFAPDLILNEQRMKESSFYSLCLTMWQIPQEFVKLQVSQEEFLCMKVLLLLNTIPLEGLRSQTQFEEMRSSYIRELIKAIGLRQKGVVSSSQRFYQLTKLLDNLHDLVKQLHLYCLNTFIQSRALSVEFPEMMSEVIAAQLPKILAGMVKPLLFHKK

[6] = target: T3, Mineralocorticoid receptor (Homo sapiens, UniProt P08235); assay: Binding affinity to mineralocorticoid receptor
T3 sequence (P08235 whole entry): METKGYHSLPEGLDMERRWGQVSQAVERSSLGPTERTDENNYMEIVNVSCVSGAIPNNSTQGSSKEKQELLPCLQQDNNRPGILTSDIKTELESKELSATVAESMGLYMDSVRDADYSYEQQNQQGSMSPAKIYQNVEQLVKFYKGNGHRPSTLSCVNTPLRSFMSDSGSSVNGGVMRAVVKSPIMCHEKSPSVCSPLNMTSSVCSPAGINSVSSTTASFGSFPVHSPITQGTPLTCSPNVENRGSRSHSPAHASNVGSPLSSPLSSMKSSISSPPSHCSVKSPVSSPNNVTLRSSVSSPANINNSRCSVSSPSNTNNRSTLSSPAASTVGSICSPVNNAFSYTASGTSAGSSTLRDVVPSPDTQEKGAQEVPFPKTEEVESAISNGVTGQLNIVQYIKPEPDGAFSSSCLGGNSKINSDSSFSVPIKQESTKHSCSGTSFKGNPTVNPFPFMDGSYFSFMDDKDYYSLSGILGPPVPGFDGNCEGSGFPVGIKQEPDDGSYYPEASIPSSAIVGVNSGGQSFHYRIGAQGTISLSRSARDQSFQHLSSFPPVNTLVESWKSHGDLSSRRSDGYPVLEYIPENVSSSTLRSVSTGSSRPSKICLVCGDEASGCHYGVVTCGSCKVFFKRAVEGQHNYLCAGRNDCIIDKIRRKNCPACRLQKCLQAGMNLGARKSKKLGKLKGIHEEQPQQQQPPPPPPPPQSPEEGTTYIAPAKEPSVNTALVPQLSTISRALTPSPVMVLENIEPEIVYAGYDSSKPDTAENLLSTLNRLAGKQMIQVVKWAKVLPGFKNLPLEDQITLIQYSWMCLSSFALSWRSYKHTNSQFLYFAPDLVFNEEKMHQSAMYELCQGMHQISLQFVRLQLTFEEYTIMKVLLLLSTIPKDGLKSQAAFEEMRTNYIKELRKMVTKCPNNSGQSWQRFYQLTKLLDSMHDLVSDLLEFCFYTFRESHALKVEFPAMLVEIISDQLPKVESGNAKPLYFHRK

pKi (Glucocorticoid receptor [1]) | pEC50 (Glucocorticoid receptor [2]) | pEC50 (Glucocorticoid receptor [3]) | pIC50 (Glucocorticoid receptor [4]) | pIC50 (Glucocorticoid receptor [5]) | pKi (Progesterone receptor) | pKi [6] | SMILES
8.17 | 7.77 | 6.34 | 7.36 | 7.40 | 6.80 | 6.18 | C[C@H]1c2c(cc(F)c(-c3cccc4c(Cl)c[nH]c34)c2F)NC(C)(C)[C@@H]1OC(=O)NCc1ccccc1 (racemic)
7.86 | 8.29 | 6.57 | 8.09 | 8.30 | – | – | C[C@H]1c2c(cc(F)c(-c3cccc4c(Cl)c[nH]c34)c2F)NC(C)(C)[C@@H]1OC(=O)Nc1ccc(C#N)cc1
8.11 | 7.05 | 6.44 | 7.35 | 7.77 | 6.67 | 6.42 | CC(C)NC(=O)O[C@@H]1[C@@H](C)c2c(cc(F)c(-c3cccc4c(Cl)c[nH]c34)c2F)NC1(C)C (racemic)
7.79 | 7.68 | – | 8.00 | 7.80 | – | – | C[C@H]1c2c(cc(F)c(-c3cccc4cc[nH]c34)c2F)NC(C)(C)[C@@H]1OC(=O)Nc1ccc(C#N)cc1
8.52 | 7.41 | 6.70 | 8.00 | < 6.00 | – | – | CNC(=O)O[C@@H]1[C@@H](C)c2c(cc(F)c(-c3cccc4cc[nH]c34)c2F)NC1(C)C (racemic)
– | – | 7.01 | – | – | – | – | C[C@H]1c2c(cc(F)c(-c3cccc4cc[nH]c34)c2F)NC(C)(C)[C@@H]1O (racemic)
7.52 | 7.82 | 6.57 | 7.54 | 7.80 | – | – | COC(=O)c1ccc(NC(=O)O[C@@H]2[C@@H](C)c3c(cc(F)c(-c4cccc5cc[nH]c45)c3F)NC2(C)C)cc1
8.66 | 7.68 | 6.33 | 7.92 | 7.28 | – | – | CNC(=O)O[C@@H]1[C@@H](C)c2c(cc(F)c(-c3cccc4c(Cl)c[nH]c34)c2F)NC1(C)C (racemic)
7.15 | 6.75 | – | 7.36 | 7.54 | – | – | C[C@H]1c2c(cc(F)c(-c3cccc4cc[nH]c34)c2F)NC(C)(C)[C@@H]1OC(=O)Nc1ccc(Cl)cc1
7.94 | 7.96 | 6.16 | 8.12 | 7.51 | – | – | COc1ccc(NC(=O)O[C@@H]2[C@@H](C)c3c(cc(F)c(-c4cccc5cc[nH]c45)c3F)NC2(C)C)cc1Cl
8.37 | 7.15 | 6.36 | 7.82 | 7.64 | 7.03 | 5.65 | C[C@H]1c2c(cc(F)c(-c3cccc4c(Cl)c[nH]c34)c2F)NC(C)(C)[C@@H]1OC(=O)NC1CCCCC1 (racemic)
6.88 | < 6.00 | – | < 6.00 | – | – | – | C[C@H]1c2c(cc(F)c(-c3cccc4cc[nH]c34)c2F)NC(C)(C)[C@@H]1OC(=O)N1CCCCC1 (racemic)
7.84 | < 6.00 | – | < 6.00 | < 6.00 | – | – | C[C@H]1c2c(cc(F)c(-c3cccc4cc[nH]c34)c2F)NC(C)(C)[C@@H]1OC(=O)N(C)c1ccccc1
8.12 | 8.12 | 6.42 | 8.04 | 7.48 | – | – | C[C@H]1c2c(cc(F)c(-c3cccc4c(Cl)c[nH]c34)c2F)NC(C)(C)[C@@H]1OC(=O)Nc1ccccc1
7.91 | 7.74 | 6.06 | 8.07 | 7.30 | – | – | C[C@H]1c2c(cc(F)c(-c3cccc4cc[nH]c34)c2F)NC(C)(C)[C@@H]1OC(=O)Nc1ccc2c(c1)OCO2
8.21 | 6.98 | – | 7.40 | < 6.00 | – | – | C[C@H]1c2c(cc(F)c(-c3cccc4cc[nH]c34)c2F)NC(C)(C)[C@@H]1OC(=O)Nc1ccccc1
8.29 | 8.46 | 6.44 | 8.08 | 7.41 | – | – | C[C@H]1c2c(cc(F)c(-c3cccc4cc[nH]c34)c2F)NC(C)(C)[C@@H]1OC(=O)Nc1ccc(N(C)C)cc1
8.17 | 8.24 | 6.55 | 8.24 | 7.92 | – | – | COc1ccc(NC(=O)O[C@@H]2[C@@H](C)c3c(cc(F)c(-c4cccc5c(Cl)c[nH]c45)c3F)NC2(C)C)cc1Cl
8.54 | 7.80 | 6.74 | 7.64 | 7.51 | 6.64 | 5.95 | CC(=O)c1ccc(NC(=O)O[C@@H]2[C@@H](C)c3c(cc(F)c(-c4cccc5cc[nH]c45)c3F)NC2(C)C)cc1 (racemic)
8.03 | 7.54 | 6.48 | 7.31 | 7.66 | 6.17 | 5.50 | CC(=O)c1cccc(NC(=O)O[C@@H]2[C@@H](C)c3c(cc(F)c(-c4cccc5cc[nH]c45)c3F)NC2(C)C)c1 (racemic)
7.86 | 7.62 | 6.54 | 7.89 | 7.42 | 6.18 | 5.83 | C[C@H]1c2c(cc(F)c(-c3cccc4cc[nH]c34)c2F)NC(C)(C)[C@@H]1OC(=O)Nc1cccc(C#N)c1 (racemic)
